Where two headings read alike, the source gives them in different places.

For one assay, the target named is T1, mMC5R (Mus musculus, UniProt P41149).
T1 construct: expressed in transfected cells; host or cells: HEK-293
The assay can be described thus: Functional bioassay (CRE/β-galactosidase reporter), agonist activity at mMC5R. Format: cell-based. The note with it: HEK-293 cells stably expressing receptor; ± SEM. As for the experimental part: (§1) For cell culture and transfection, briefly, HEK-293 cells were maintained in Dulbecco's modified Eagle's medium (DMEM) with 10% fetal calf serum and seeded 1 day prior to transfection at 1 to 2×10^6 cell/100-mm dish. Melanocortin receptor DNA in the pcDNA3 expression vector (20 μg) were transfected using the calcium phosphate method. Stable receptor populations were generated using G418 selection (1 mg/mL) for subsequent bioassay analysis.
(§2) In the functional bioassay studies, HEK-293 cells stably expressing the melanocortin receptors were transfected with 4 μg CRE/β-galactosidase reporter gene as previously described in the literature. Briefly, 5,000 to 15,000 post transfection cells were plated into 96 well Primera plates (Falcon) and incubated overnight. […] The sample absorbance, OD405, was measured using a 96 well plate reader (Molecular Devices). The relative protein was determined by adding 200 μL 1:5 dilution Bio Rad G250 protein dye:water to the 10 μL cell lysate sample taken previously, and the OD595 was measured on a 96 well plate reader (Molecular Devices). […]
(§3) The pA2 values were generated using the Schild analysis method [Schild, H. O. pA2, A New Scale for the Measurement of Drug Antagonism. […] EC50 and pA2 estimates, and their associated standard errors, were determined by fitting the data to a nonlinear least-squares analysis using the PRISM program (v3.0, GraphPad Inc.).

The next assay addresses T2, mMC4R (Mus musculus, UniProt P56450).
T2 construct: expressed in transfected cells; host or cells: HEK-293
The experiment in a line: Functional bioassay (CRE/β-galactosidase reporter), agonist activity at mMC4R. The format is cell-based. To be noted: HEK-293 cells stably expressing receptor; ± SEM. As for the experimental part:
as §1, §2, §3

For another assay, the system named is food intake. To be noted: central / ICV administration to rodents, literature, cited from earlier work.
A further assay concerns the target hMC3R (Homo sapiens, UniProt P41968). To be noted: literature (Danho et al); cited from earlier work.
A further assay deals with T3, human MC4R (Homo sapiens, UniProt P32245).
T3 construct: expressed in transfected cells; host or cells: HEK-293
The note with it: literature (Yang et al 2000; Danho et al); read-out: agonist activity at the human MC4 receptor; cited from earlier work.

T2 sequence (P56450 whole entry): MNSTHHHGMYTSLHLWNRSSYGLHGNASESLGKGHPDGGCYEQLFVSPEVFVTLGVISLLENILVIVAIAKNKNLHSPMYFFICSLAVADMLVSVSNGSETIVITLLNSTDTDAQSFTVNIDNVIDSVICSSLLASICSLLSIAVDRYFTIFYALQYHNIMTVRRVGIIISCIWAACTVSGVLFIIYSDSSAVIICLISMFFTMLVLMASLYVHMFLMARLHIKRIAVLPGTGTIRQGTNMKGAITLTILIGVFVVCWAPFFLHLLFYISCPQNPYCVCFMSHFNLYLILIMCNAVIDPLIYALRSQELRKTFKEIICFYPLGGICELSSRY
T3 sequence (P32245 whole entry): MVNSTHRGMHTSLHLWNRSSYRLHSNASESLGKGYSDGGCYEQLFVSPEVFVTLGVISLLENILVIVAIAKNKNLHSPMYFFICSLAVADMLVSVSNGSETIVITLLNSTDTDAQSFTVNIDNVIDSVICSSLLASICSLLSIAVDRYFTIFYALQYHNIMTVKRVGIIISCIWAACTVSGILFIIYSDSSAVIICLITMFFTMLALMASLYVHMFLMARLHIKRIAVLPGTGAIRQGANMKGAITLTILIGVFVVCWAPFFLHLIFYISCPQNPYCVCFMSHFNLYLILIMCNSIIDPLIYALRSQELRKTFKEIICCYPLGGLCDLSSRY
Chain of hMC3R (P41968 whole entry): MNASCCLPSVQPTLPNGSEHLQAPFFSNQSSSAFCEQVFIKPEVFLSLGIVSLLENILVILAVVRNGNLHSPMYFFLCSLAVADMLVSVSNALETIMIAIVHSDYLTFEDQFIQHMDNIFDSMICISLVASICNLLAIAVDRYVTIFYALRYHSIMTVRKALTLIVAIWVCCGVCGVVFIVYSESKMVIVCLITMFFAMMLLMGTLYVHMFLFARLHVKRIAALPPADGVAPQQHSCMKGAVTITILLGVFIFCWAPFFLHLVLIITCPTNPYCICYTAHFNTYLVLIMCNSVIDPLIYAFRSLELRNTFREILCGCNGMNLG
T1 sequence (P41149 whole entry): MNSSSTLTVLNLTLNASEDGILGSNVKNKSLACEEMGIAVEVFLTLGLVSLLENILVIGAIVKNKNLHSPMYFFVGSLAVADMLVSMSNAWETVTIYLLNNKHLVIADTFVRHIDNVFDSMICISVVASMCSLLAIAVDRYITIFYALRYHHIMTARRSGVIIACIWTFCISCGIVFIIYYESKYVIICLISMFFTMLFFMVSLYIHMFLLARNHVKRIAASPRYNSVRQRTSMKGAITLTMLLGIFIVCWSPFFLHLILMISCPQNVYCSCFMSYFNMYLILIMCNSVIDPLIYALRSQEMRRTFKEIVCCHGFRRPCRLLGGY

With `CC(=O)N[C@@H](Cc1c[nH]cn1)C(=O)N[C@H](Cc1ccccc1)C(=O)N[C@@H](CCCNC(=N)N)C(=O)N[C@@H](Cc1c[nH]c2ccccc12)C(N)=O` [JRH279-31, Ac-His-DPhe-Arg-Trp-NH2], the EC50 is 3.96 ± 0.94 nM on mMC5R and 17.2 ± 2.78 nM at mMC4R.

Consider “Ac-Nle-c[Asp-His-DNal(2′)-Arg-Trp-Lys]-NH2 [SHU91 19]”, for which the “effect on food intake” value in the assay on food intake is “increased food intake”; with food intake (listed as SHU-9119) it was “can induce hyperphagia”.

On to “c[Asp-(racemic)Atc-DPhe-Arg-Trp-Lys]-NH2”, for which the “agonist activity at the hMC3R (in words)” value on hMC3R was “only slight agonist activity”. Further, the EC50 on human MC4R is 65 nM.

Values taken from US7368433B2, “Peptides and methods for the control of obesity” (University of Florida Research Foundation, Inc., priority 2002, dated 2008).
